The values that follow are results of earlier work, collected in patent publication US8759032B2, “Genetically engineered strain WSJ-IA for producing isovaleryl spiramycin I” (Shen Yang Tonglian Group Co., Ltd., priority 2010, dated 2014).

The conditions of the series: single components; no significant differences in their activities; patent application 201010119745.1.
Consider `CO[C@@H]1[C@@H](O[C@@H]2O[C@H](C)[C@@H](O[C@H]3C[C@@](C)(O)[C@@H](OC(=O)CC(C)C)[C@H](C)O3)[C@H](N(C)C)[C@H]2O)[C@@H](CC=O)C[C@@H](C)[C@@H](O[C@H]2CC[C@H](N(C)C)[C@@H](C)O2)/C=C/C=C/C[C@@H](C)OC(=O)C[C@H]1O` [Isovaleryl spiramycin I], for which the antibiotic activities entry is reported as “all have antibiotic activities”.
Take Isovaleryl spiramycin II: the antibiotic activities entry is “all have antibiotic activities”.
For `CCC(=O)O[C@@H]1CC(=O)O[C@H](C)C/C=C/C=C/[C@H](O[C@H]2CC[C@H](N(C)C)[C@@H](C)O2)[C@H](C)C[C@H](CC=O)[C@H](O[C@@H]2O[C@H](C)[C@@H](O[C@H]3C[C@@](C)(O)[C@@H](OC(=O)CC(C)C)[C@H](C)O3)[C@H](N(C)C)[C@H]2O)[C@H]1OC` [Isovaleryl spiramycin III], the antibiotic activities result was “all have antibiotic activities”.
